In patent publication US12434967B2, “Method for preparing a solid material for storing ozone, the material and the uses thereof” (priority 2019, dated 2025):

Key:
[1] = in water under ambient conditions; cited from earlier work
[2] = ozone release, first test: water added to powder in closed reactor, ozone detector; type: physicochemical; conditions: same conditions, after adding water
Method: In the first test, about 1.5 g of ozone storage material in powder form have been placed in a glass cup, which in turn has been placed in a glass reactor of volume 1.4 litres. The reactor can be hermetically closed and has been maintained at ambient temperature (˜20° C.).
A portable ozone detector (model X-an-5000 from Dräger, equipped with an XXS O3 cell specifically for ozone detection, detection limit equal to 0.02 ppm and resolution equal to 0.01 ppm, response time <10 s at 20° C.) has been introduced into the reactor and switched on near the powder cup. The detector thus placed makes it possible to continuously emphasise the presence of ozone in the reactor, from an ozone concentration higher than the detection limit of 0.02 ppm.
Secondly, using a graduated glass pipette, a volume of approximately 3 ml of distilled water has been introduced onto the powder through one of the upper openings of the reactor. The reactor has then been immediately hermetically closed again to monitor the course of the vapour phase composition of the reactor with the detector over time. The dissolution of part of the material (about ⅓ of the initial amount) by this addition of water (as the material is relatively soluble in water), caused a rapid increase in the ozone concentration over time as read on the detector (for example 0.1 ppm measured in 40 s; 0.2 ppm in 100 s). […]

Row | Compound | lifetime [1] | ozone release on the detector [2]
1 | O=[O+][O-] [ozone] | about 20 minutes | 
2 | (2-hydroxypropyl)-β-cyclodextrin [native HP-β-CD] |  | no ozone release was observed
